Experimental data as given in patent publication US20020107209A1, “Triterpene saponins from soybeans for treating kidney disease” (priority 2000, published 2002).

What was measured:
[1] = system: rodent models of polycystic kidney disease (PKD); assay: Casein-based diet supplemented with crude saponin-enriched alcohol extract (SEAE), ginseng, genistein or L-arginine; earlier experiment; format: in vivo, mice; conditions: supplementation of the casein-based diet
Excerpt: These beneficial effects appeared unique to the saponins derived from soybeans as supplementation of the casein-based diet with (1) ginseng (also a saponin), (2) genistein, (an isoflavone naturally present in SPI) or (3) addition of the amino acid L-arginine to the casein to mimic the amino acid composition to that of the SPI had no effect on disease progression.
The major component of the SEAE was identified as soyasaponin Bb with smaller amounts of two or three unidentified saponins and trace amounts of genistein and daidzen, two naturally occurring isoflavones in soy protein. The inventors determined that the Group B soybean-derived saponins (soyasaponins), especially soyasaponin Bb, was an important contributor to the attenuation of cyst growth.

pcy mouse model of PKD = assay: 90-day feeding trial in pcy mice: casein-based diet supplemented with Novasoy 400 or soyasaponin Bb concentrate; format: in vivo; conditions: for effect on attenuation of kidney size and cyst development: pcy mouse model of PKD, summary in words
Procedure: Experiments were conducted with a purified soyasaponin Bb concentrate for a feeding trial in the pcy mice.
The feeding trial, which followed the acquisition of this soyasaponin Bb concentrate, explored the possibility that this concentrate was an important contributor to the attenuation of disease progression in the pcy mouse. The protocol used in this trial involved the random assignment of young, male pcy mice to one of three dietary treatments and feeding these diets for 90 days, the usual time frame in these studies. The diets used in this feeding trial were:1) an unsupplemented casein-based diet, known to increase the severity of the renal cystic disease; 2) this casein-based diet supplemented with Novasoy 400®, a new, isoflavone-enhanced product containing low levels of the soyasaponins (ADM, Decatur, Ill.) or 3) the casein-based diet supplemented with the purified soyasaponin Bb concentrate prepared by Drs. Collins and Sarr.
After three months the mice were humanely euthanized and the kidney and liver tissues removed and stored at −80 degrees Celsius until measurements of tissue water content and cell volume could be taken. Organ water content was determined in the kidney and liver by measuring the difference between the wet weight of the tissue and its subsequent weight after freeze-drying. Plasma, obtained by centrifugation of the cardiac blood, was used for standard measurements of renal function, including total protein, urea, and creatinine concentrations. Soy protein fractions enriched in the soyasaponins are reportedly hypocholesterolemic when fed to hamsters (Gatchalian-Yee M. et al. Nutrition. 13:633-639,1997) and plasma cholesterol levels were also measured in the present experiment whenever the sample volume was adequate. Differences between treatment effects were assessed by a one-way ANOVA and the significance of these differences between means obtained by the Tukey's Honestly Significant Different Test.

[2] = pcy mice, 90 days, plasma from cardiac blood, mean ± SEM
[3] = pcy mice, 90 days, versus casein
[4] = pcy mice, 90 days, versus unsupplemented casein diet
[5] = pcy mice, diet fed 90 days, mean ± SEM
[6] = pcy mice, diet fed 90 days, mean ± SEM, 8 animals/group

daily food intake (pcy mouse model of PKD; pcy mice, 90-day feeding trial) [g/day]	relative liver weight (pcy mouse model of PKD; [3])	Final body wt (pcy mouse model of PKD; [5]) [g]	Liver water content (pcy mouse model of PKD; [5]) [g]	Liver wt (pcy mouse model of PKD; [5]) [g]	Liver wt (g/100 g body wt) (pcy mouse model of PKD; [5])	Structure (SMILES)	effect on disease progression [1]	Plasma cholesterol (pcy mouse model of PKD; [2]) [mM/L]	Plasma creatinine (pcy mouse model of PKD; [2]) [µM]	Plasma total protein (pcy mouse model of PKD; [2]) [g/L]	Plasma urea (pcy mouse model of PKD; [2]) [mM/L]	absolute and relative kidney weight and kidney water content (pcy mouse model of PKD; [3])	plasma cholesterol levels (pcy mouse model of PKD; [4])	plasma creatinine levels (pcy mouse model of PKD; [4])	Kidney water content (g/left kidney) (pcy mouse model of PKD; pcy mice, 90 days, wet weight minus freeze-dried weight, mean ± SEM)	Total kidney wt (pcy mouse model of PKD; [6]) [g]	Total kidney wt (g/100 g body wt) (pcy mouse model of PKD; [6])	effect on attenuation of kidney size and cyst development (pcy mouse model of PKD)	effect on attenuation of kidney size and cyst development (pcy mouse model of PKD; listed as soyasaponin Bb concentrate)
–	–	–	–	–	–	O=c1c(-c2ccc(O)cc2)coc2cc(O)cc(O)c12 [genistein]	no effect	–	–	–	–	–	–	–	–	–	–	–	–
3.3 ± 0.0	not observed	25.1 ± 0.1	0.82 ± 0.0	1.2 ± 0.2	4.6 ± 0.1	C[C@@H]1O[C@@H](O[C@H]2[C@H](O[C@H]3[C@H](O[C@H]4CC[C@@]5(C)[C@@H](CC[C@]6(C)[C@@H]5CC=C5[C@@H]7CC(C)(C)C[C@@H](O)[C@]7(C)CC[C@]56C)[C@@]4(C)CO)O[C@H](C(=O)O)[C@@H](O)[C@@H]3O)O[C@H](CO)[C@H](O)[C@@H]2O)[C@H](O)[C@H](O)[C@H]1O [soyasaponin Bb, 3-O-(α-L-rhamnosyl-1→2-β-D-galactosyl-1→2-β-D-glucuronosyl)-soyasapogenol B]	–	4.8 ± 0.3	17.5 ± 1.9	54.3 ± 1.1	19.5 ± 3.0	marked reduction	lesser hypocholesterolemic effect	markedly reduced	0.61 ± 0.1	1.3 ± 0.1	5.2 ± 0.3	important beneficial effect	marked beneficial effect
–	–	–	–	–	–	N=C(N)NCCC[C@H](N)C(=O)O [L-arginine]	no effect	–	–	–	–	–	–	–	–	–	–	–	–
